Measured values taken from ChEMBL document CHEMBL1201862, “PubChem BioAssay data set” (2004).
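The compound was tested at five concentrations on cells cultured in 96-well plates, with a 48-hour exposure period. Here, GI50 denotes the concentration required for 50% inhibition of growth.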 Active and inactive are the calls of the source. Rule as the data show it: active = GI50 up to about 1.1 µM and inactive = higher.

Columns and labels:
Assay in all cases: NCI-60 cell line screen, 48 h
IGROV-1 = test system: IGROV-1
ACHN = test system: ACHN
HCC 2998 = test system: HCC 2998
HOP-62 = test system: HOP-62
T47D = test system: T47D
NCI-H522 = test system: NCI-H522
NCI-H460 = test system: NCI-H460
RXF 393 = test system: RXF 393
NCI-H23 = test system: NCI-H23
SK-MEL-28 = test system: SK-MEL-28
SN12C = test system: SN12C
NCI/ADR-RES = test system: NCI/ADR-RES
MOLT-4 = test system: MOLT-4
MCF7 = test system: MCF7
SR = test system: SR
HOP-92 = test system: HOP-92
SK-MEL-2 = test system: SK-MEL-2
UO-31 = test system: UO-31
Malme-3M = test system: Malme-3M
SF-539 = test system: SF-539

Structure (SMILES)	GI50 (IGROV-1)	GI50 (ACHN)	GI50 (HCC 2998)	GI50 (HOP-62)	GI50 (T47D)	GI50 (NCI-H522)	GI50 (NCI-H460)	GI50 (RXF 393)	GI50 (NCI-H23)	GI50 (SK-MEL-28)	GI50 (SN12C)	GI50 (NCI/ADR-RES)	GI50 (MOLT-4)	GI50 (MCF7)	GI50 (SR)	GI50 (HOP-92)	GI50 (SK-MEL-2)	GI50 (UO-31)	GI50 (Malme-3M)	GI50 (SF-539)
CC1=C(Br)C(=O)c2c(O)ccc(O)c2C1=O	1.59 µM (inactive)	0.869 µM (active)	1.75 µM (inactive)	0.849 µM (active)	0.412 µM (active)	0.153 µM (active)	1.26 µM (inactive)	1.42 µM (inactive)	0.938 µM (active)	0.875 µM (active)	1.38 µM (inactive)	0.555 µM (active)	0.0258 µM (active)	0.182 µM (active)	0.207 µM (active)	0.627 µM (active)	5.83 µM (inactive)	0.625 µM (active)	0.295 µM (active)	0.646 µM (active)
O=C1NC2(CCNCC2)Oc2ccccc21	> 100 µM (inactive)	> 100 µM (inactive)	> 100 µM (inactive)	> 100 µM (inactive)	> 100 µM (inactive)	> 100 µM (inactive)	> 100 µM (inactive)	64.1 µM (inactive)	> 100 µM (inactive)	> 100 µM (inactive)	> 100 µM (inactive)	> 100 µM (inactive)	> 100 µM (inactive)	> 100 µM (inactive)	> 100 µM (inactive)	> 100 µM (inactive)	> 100 µM (inactive)	> 100 µM (inactive)	> 100 µM (inactive)	> 100 µM (inactive)
CCOC(=O)c1ccc(/N=C2\SC(=S)N(c3ccc(F)cc3)\C2=N/c2ccc(C(=O)OCC)cc2)cc1	14.4 µM (inactive)	13.6 µM (inactive)	40.7 µM (inactive)	> 58.7 µM (inactive)	5.19 µM (inactive)	5.97 µM (inactive)	51.9 µM (inactive)	9.68 µM (inactive)	17.8 µM (inactive)	13.2 µM (inactive)	15.7 µM (inactive)	17 µM (inactive)	3.68 µM (inactive)	18.8 µM (inactive)	2.2 µM (inactive)	7.76 µM (inactive)	12.9 µM (inactive)	10.8 µM (inactive)	15.5 µM (inactive)	20 µM (inactive)
Cc1ccc(C)c(C2NC(=O)c3ccccc3N2)c1 (stereo not given)	1.13 µM (inactive)	4.83 µM (inactive)	2.8 µM (inactive)	1.93 µM (inactive)	2.72 µM (inactive)	0.689 µM (active)	0.916 µM (active)	1.95 µM (inactive)	6.04 µM (inactive)	12.5 µM (inactive)	4.69 µM (inactive)	0.7 µM (active)	0.506 µM (active)	0.454 µM (active)	0.555 µM (active)	37.2 µM (inactive)	1.29 µM (inactive)	7.71 µM (inactive)	0.668 µM (active)	0.587 µM (active)
O=c1oc2ccc(Cl)cc2cc1-c1cn2cc(Cl)ccc2n1	> 25.8 µM (inactive)	> 100 µM (inactive)	> 73.6 µM (inactive)	> 69.3 µM (inactive)	> 100 µM (inactive)	0.74 µM (active)	14.4 µM (inactive)	> 100 µM (inactive)	> 100 µM (inactive)	> 100 µM (inactive)	> 89.1 µM (inactive)	11.4 µM (inactive)	6.46 µM (inactive)	1.64 µM (inactive)	0.473 µM (active)	> 100 µM (inactive)	> 100 µM (inactive)	> 44 µM (inactive)	0.698 µM (active)	> 100 µM (inactive)
CC1=C(C(=O)Nc2ccccc2)C2(CCCCC2)C(C#N)=C(SCC(=O)Nc2ccc(Br)cc2)N1	3.34 µM (inactive)	4.45 µM (inactive)	2.54 µM (inactive)	10.1 µM (inactive)	5.19 µM (inactive)	2.06 µM (inactive)	3.22 µM (inactive)	4.54 µM (inactive)	4.1 µM (inactive)	5.73 µM (inactive)	4.23 µM (inactive)	3.88 µM (inactive)	2.82 µM (inactive)	4.51 µM (inactive)	2.31 µM (inactive)	3.11 µM (inactive)	2.54 µM (inactive)	1.39 µM (inactive)	1.82 µM (inactive)	13.3 µM (inactive)
